The text below walks through data of patent US9085555B2, “Complement pathway modulators and uses thereof” (priority 2011, dated 2015).

The term IC50 denotes the point on the concentration scale where inhibition reaches its midpoint.

Factor D, sequence (P00746 26-253): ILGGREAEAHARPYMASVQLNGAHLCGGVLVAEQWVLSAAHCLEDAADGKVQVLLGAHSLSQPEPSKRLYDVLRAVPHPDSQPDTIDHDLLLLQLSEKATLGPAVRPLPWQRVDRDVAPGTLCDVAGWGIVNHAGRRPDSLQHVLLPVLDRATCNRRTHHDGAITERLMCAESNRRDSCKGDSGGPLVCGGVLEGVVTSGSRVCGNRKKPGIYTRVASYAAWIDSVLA

This assay concerns the target Factor D (Homo sapiens (Human), UniProt P00746). Kind of assay: biochemical. Type of assay: biochemical. Conditions: read-out: IC50.
Turning to `C[C@@]1(F)C[C@@H](C(=O)NCc2cccc(Cl)c2F)N(C(=O)Cn2cc(C(=O)C(F)(F)F)c3ccccc32)C1` [Example 554, (2S,4R)-4-Fluoro-4-methyl-1-{2-[3-(2,2,2-trifluoro-acetyl)-indol-1-yl]-acetyl}-pyrrolidine-2-carboxylic acid 3-chloro-2-fluoro-benzylamide], the IC50 was determined as 44 nM.

As for `Cc1ncc(NC(=O)[C@@H]2C[C@@H](F)CN2C(=O)Nc2cn(C(N)=O)c3ccccc23)cc1Br` [Example 165, (2S,4R)-4-Fluoro-pyrrolidine-1,2-dicarboxylic acid 1-[(1-carbamoyl-1H-indol-3-yl)-amide] 2-[(5-bromo-4-methyl-pyridin-3-yl)-amide]], the IC50 is 140 nM.

In the case of `CCc1cc2c(C(N)=O)nn(CC(=O)N3[C@@H]4C[C@@H]4C[C@H]3C(=O)Nc3cccc(Br)c3F)c2cn1` [Example 671, 1-{2-[(1R,3S,5R)-3-(3-Bromo-2-fluoro-phenylcarbamoyl)-2-aza-bicyclo[3.1.0]hex-2-yl]-2-oxo-ethyl}-5-ethyl-1H-pyrazolo[3,4-c]pyridine-3-carboxylic acid amide], the IC50 worked out at 77 nM.

For `NC(=O)n1cc(NC(=O)N2C[C@@H](C(F)(F)F)C[C@H]2C(=O)NCc2cccc(Cl)c2F)c2ccccc21` [Example 147, (2S,4S)-4-Trifluoromethyl-pyrrolidine-1,2-dicarboxylic acid 1-[(1-carbamoyl-1H-indol-3-yl)-amide] 2-(3-chloro-2-fluoro-benzylamide)], the IC50 came to 120 nM.

On to `COC(=O)c1cc(Br)cc(NC(=O)[C@@H]2C[C@@H](F)CN2C(=O)Nc2cn(C(N)=O)c3ccccc23)c1` [Example 153, 3-Bromo-5-{[(2S,4R)-1-(1-carbamoyl-1H-indol-3-ylcarbamoyl)-4-fluoro-pyrrolidine-2-carbamoyl]-amino}-benzoic acid methyl ester], for which the IC50 came out at 55 nM.

With `NC(=O)n1cc(NC(=O)N2C[C@H](F)C[C@H]2C(=O)NCc2ccncc2)c2ccccc21` [Example 6, (2S,4R)-4-Fluoro-pyrrolidine-1,2-dicarboxylic acid 1-[(1-carbamoyl-1H-indol-3-yl)-amide] 2-[(pyridin-4-ylmethyl)-amide]], the IC50 worked out at 2100 nM.

With `CC(=O)c1cn(CC(=O)N2[C@@H]3C[C@@H]3C[C@H]2C(=O)N[C@H](CO)c2cccc(Cl)c2F)c2ncccc12` [Example 613, (1R,3S,5R)-2-[2-(3-Acetyl-pyrrolo[2,3-b]pyridin-1-yl)-acetyl]-2-aza-bicyclo[3.1.0]hexane-3-carboxylic acid [(S)-1-(3-chloro-2-fluoro-phenyl)-2-hydroxy-ethyl]-amide], the IC50 was 215 nM.

For the compound `CO[C@H]1[C@@H](C(=O)N[C@H](C)c2cccc(Cl)c2F)N(C(=O)Cn2nc(C(N)=O)c3cnccc32)C[C@@H]1F` [Example 665, 1-(2-{(2S,3S,4S)-2-[(R)-1-(3-Chloro-2-fluoro-phenyl)-ethylcarbamoyl]-4-fluoro-3-methoxy-pyrrolidin-1-yl}-2-oxo-ethyl)-1H-pyrazolo[4,3-c]pyridine-3-carboxylic acid amide], the IC50 was 58 nM.

Take `CC(=O)c1nn(CC(=O)N2C[C@@H]3C[C@@H]3[C@H]2C(=O)NCc2cccc(Cl)c2F)c2cnc(C)cc12` [Example 625, (1S,2S,5R)-3-[2-(3-Acetyl-5-methyl-pyrazolo[3,4-c]pyridin-1-yl)-acetyl]-3-aza-bicyclo [3.1.0]hexane-2-carboxylic acid 3-chloro-2-fluoro-benzylamide]: the IC50 turned out to be 19 nM.

As to `Cc1ccc(Cl)cc1CNC(=O)[C@@H]1C[C@H](N)CN1C(=O)Nc1cn(C(N)=O)c2ccccc12` [Example 58, (2S,4S)-4-Amino-pyrrolidine-1,2-dicarboxylic acid 1-[(1-carbamoyl-1H-indol-3-yl)-amide] 2-(5-chloro-2-methyl-benzylamide)], the 50% inhibitory concentration (IC50) worked out at 350 nM.

Turning to `NC(=O)c1nn(CC(=O)N2[C@@H]3C[C@@H]3C[C@H]2C(=O)NCc2cccc(Cl)c2F)c2cnc(C3CC3)cc12` [Example 700, 1-{2-[(1R,3S,5R)-3-(3-Chloro-2-fluoro-benzylcarbamoyl)-2-aza-bicyclo[3.1.0]hex-2-yl]-2-oxo-ethyl}-5-cyclopropyl-1H-pyrazolo[3,4-c]pyridine-3-carboxylic acid amide], the IC50 was 6 nM.

As for `CC(=O)c1cn(CC(=O)N2C[C@](C)(F)C[C@H]2C(=O)NCc2cccc(Cl)c2F)c2ccncc12` [Example 502, (2S,4R)-1-[2-(3-Acetyl-pyrrolo[3,2-c]pyridin-1-yl)-acetyl]-4-fluoro-4-methyl-pyrrolidine-2-carboxylic acid 3-chloro-2-fluoro-benzylamide], the half-maximal inhibitory concentration (IC50) is 449 nM.

Take `CC[C@H](C)[C@@H](CO)NC(=O)[C@@H]1C[C@H](N)CN1C(=O)Nc1cn(C(N)=O)c2ccccc12` [Example 101, (2S,4S)-4-Amino-pyrrolidine-1,2-dicarboxylic acid 1-[(1-carbamoyl-1H-indol-3-yl)-amide] 2-[((1S,2S)-1-hydroxymethyl-2-methyl-butyl)-amide]]: the IC50 turned out to be 15200 nM.

Turning to `CN(C)[C@@H]1CN(C(=O)Nc2cn(C(N)=O)c3ccccc23)[C@H](C(=O)NCc2cccc(Cl)c2F)[C@H]1F` [Example 189, (2R,3S,4R)-4-Dimethylamino-3-fluoro-pyrrolidine-1,2-dicarboxylic acid 1-[(1-carbamoyl-1H-indol-3-yl)-amide] 2-(3-chloro-2-fluoro-benzylamide)], the IC50 was found to be 942 nM.

As to `COc1ccc(F)c(F)c1CNC(=O)[C@@H]1SCCN1C(=O)Nc1cn(C(N)=O)c2ccccc12` [Example 262, (S)-Thiazolidine-2,3-dicarboxylic acid 3-[(1-carbamoyl-1H-indol-3-yl)-amide] 2-(2,3-difluoro-6-methoxy-benzylamide)], the 50% inhibitory concentration (IC50) is 200 nM.

Take `CC(=O)c1nn(CC(=O)N2[C@@H]3C[C@@H]3C[C@H]2C(=O)Nc2cccc(Br)n2)c2cnccc12` [Example 736, (1R,3S,5R)-2-[2-(3-Acetyl-pyrazolo[3,4-c]pyridin-1-yl)-acetyl]-2-aza-bicyclo[3.1.0] hexane-3-carboxylic acid (6-bromo-pyridin-2-yl)-amide]: the IC50 amounted to 18 nM.

As for `CO[C@H]1[C@@H](C(=O)NC2(c3cccc(Cl)c3F)CC2)N(C(=O)Cn2nc(C(N)=O)c3cnccc32)C[C@@H]1F` [Example 660, 1-(2-{(2S,3S,4S)-2-[1-(3-Chloro-2-fluoro-phenyl)-cyclopropylcarbamoyl]-4-fluoro-3-methoxy-pyrrolidin-1-yl}-2-oxo-ethyl)-1H-pyrazolo[4,3-c]pyridine-3-carboxylic acid amide], the IC50 was 16 nM.

For the compound `CC(=O)c1cn(CC(=O)N2[C@@H]3C[C@@H]3C[C@H]2C(=O)NCc2cccc(Cl)c2F)c2ncccc12` [Example 483, (1R,3S,5R)-2-[2-(3-Acetyl-pyrrolo[2,3-b]pyridin-1-yl)-acetyl]-2-aza-bicyclo[3.1.0]hexane-3-carboxylic acid 3-chloro-2-fluoro-benzylamide], the half-inhibitory concentration (IC50) was 60 nM.

For `CC(C)(C)n1nnnc1-c1cc(Cl)c(F)c(CNC(=O)[C@@H]2C[C@@H](F)CN2C(=O)Nc2cn(C(N)=O)c3ccccc23)c1` [Example 347, (2S,4R)-4-Fluoro-pyrrolidine-1,2-dicarboxylic acid 2-[5-(1-tert-butyl-1H-tetrazol-5-yl)-3-chloro-2-fluoro-benzylamide]1-[(1-carbamoyl-1H-indol-3-yl)-amide]], the IC50 worked out at 677 nM.
